The numbers were not newly measured in patent US8741342B2, “Pharmaceutical compositions comprising entacapone, levodopa, and carbidopa” (Wockhardt Research Centre, priority 2006, dated 2014), which cites them from elsewhere.

Molecules are shown by their SMILES.

The conditions of the data set: qualitative description in background section.

Turning to `C[C@@](Cc1ccc(O)c(O)c1)(NN)C(=O)O` [Carbidopa, (−)-L-(α-hydrazino-(α-methyl-β-(3,4-dihydroxybenzene)propanoic acid monohydrate], the solubility in water result is given as “slightly soluble in water”.

Consider `N[C@@H](Cc1ccc(O)c(O)c1)C(=O)O` [Levodopa, (−)-L-α-amino-β-(3,4-dihydroxybenzene)propanoic acid], for which the solubility in water result is “slightly soluble in water”.
